Measured values as given in patent publication US4004008A, “O-Tertiary amino-alkyl-N-benzoyl tyrosil amides” (priority 1974, dated 1977).

Legend:
rat = assay: Acute toxicity (DL50) i.v. in rat; format: in vivo; settings: dose causing death in 50% of the animals
Protocol: (§1) In this table (n. 1) there are recorded the compounds described in the examples with their relative serial numbers, the acute toxicity, the antispastic activity observed in two experimental tests, one "in vivo" and one "in vitro". There are moreover recorded two therapeutic indices which take account of the toxicity of these compounds in relation to their in vivo and in vitro activity. More precisely:
(§2) A. DL50 which, as is known, is the quantity of the substance expressed in mg/kg of animal weight, capable of causing death in 50% of the animals treated.

[1] = test system: intestinal transit of the charcoal; assay: Vegetable carbon (charcoal) intestinal transit test in vivo; parameters: species or system rat; settings: i.v., rat, charcoal test, 2 hours; for ED50: Rattus norvegicus, iv, 2 h, read-out: Antisp. activity in transit test: ED50
Protocol: B. The vegetable carbon method in vivo (charcoal method) which consists of administering by oral means to rats, which have fasted for 24 hours, 0.3ml/per rate of a mixture consisting of: 10g of charcoal and 5 g of gum arabic suspended in a volume of 100 cc of H2 O as well as at the same time the substance being studied, accordingly as desired, generally i.v., s.c., oral. After two hours the animals are killed and those are taken to be negative in which the charcoal has reached the first portion of the colon and the others positive, in the sense that the substance administered has slowed down the intestinal transit of the charcoal.
In effect the animals treated with a physiological solution (checks) are all negative after two hours.
D. I.T.1 is the therapeutic index under the profile of the antispastic activity in vivo, and it is obtained by recording the DL50 (column 2) with the ED50 of the charcoal test (column 3).

[2] = test system: ileum of a cavy (BaCl2 spasm); assay: Antispastic activity in vitro, Magnus method, cavy ileum stimulated with BaCl2; format: cell-based; settings: ratio to papaverine = 1; Table 1; 37°
Protocol: C. The method in vitro is that of Magnus, with the ileum of the cavy, and is in common use for all evaluations. It consists of extracting the ileum from the cavy and placing it in a receptacle which contains nutritive liquid, suitably oxygenated, and registering the movements of the organ which remains alive for several hours if maintained at a temperature of 37°. According to the traditional method followed by us, BaCl2 is put into the bath as a spasmisant: the reaction is a violent contraction of the organ. This contraction can be prevented by adding beforehand pharmaceuticals which inhibit spasms, and in this case our compounds.
The values recorded are expressed as relation between papaverine and the ED50 of our compounds. (As is known, the ED50 is the dose which results in a 50% reduction in spastic contraction).
E. I.T.2 is the therapeutic index under the profile of the antispastic activity in vitro and is given by the product between the in vitro antispastic activity index (column 4) and the corresponding DL50 (column 2).

[3] = Acute toxicity (DL50) i.v. in rat; format: in vivo; settings: in vivo, iv, dose causing death in 50% of the animals
Protocol: as §1, §2

For CCCN(CCC)C(=O)C(Cc1ccc(OCCN2CCCC2)cc1)NC(=O)c1ccc(C)cc1 (racemic) [CR 650, O-(2-pyrrolidil-N'-ethyl)-N-toluoyl-DL-tyrosil-di-n-propylamide], the “DL50 in a rat” value (rat) was 17.5 mg/kg, the “Antisp. activity in transit test: ED50” value [1] was 18.4 mg/kg and the “Antisp. activity in vitro on the ileum of a cavy by Stim. BaCl2: ED50 pap./ED50 CR” value (“Antisp. activity in vitro on the ileum” below) [2] was 1.17.
For CCCN(CCC)C(=O)C(Cc1ccc(OCCCN(C)C)cc1)NC(=O)c1ccccc1 (racemic) [CR 607, O-(3-dimethylamino-propyl)-N-benzoyl-DL-tyrosil-di-n-propylamide], the “DL50 in a rat” value (rat) was 32.4 mg/kg, the “Antisp. activity in transit test: ED50” value ([1]; 120 min) was 26.7 mg/kg and the “Antisp. activity in vitro on the ileum” value [2] was 0.41.
In the case of “O-(3-pyrrolidil-N'-propyl)-N-toluoyl-DL-tyrosil-n-butylamide [CR 797]”, the “DL50 in a rat” value (rat) is reported as 20.6 mg/kg, the “Antisp. activity in transit test: ED50” value [1] is reported as 12.0 mg/kg and the “Antisp. activity in vitro on the ileum” value [2] is reported as 1.32.
For CCCCNC(=O)C(Cc1ccc(OCCN2CCN(C)CC2)cc1)NC(=O)c1ccc(Cl)cc1 (racemic) [CR 730, O-[2-(N"-methyl-piperazine)-N'-ethyl]-N-(p-chloro-benzoyl)-DL-tyrosil-n-butylamide], the LD50 [3] was 50 mg/kg, the ED50 [1] was 30.2 mg/kg and the “Antisp. activity in vitro on the ileum” value [2] was 0.99.
With CCCN(CCC)C(=O)C(Cc1ccc(OCCN2CCCC2)cc1)NC(=O)c1ccccc1 (racemic) [CR 625, O-(2-pyrrolidil-N'-ethyl)-N-benzoyl-DL-tyrosil-di-n-propylamide] the LD50 [3] was 32.6 mg/kg, the ED50 [1] was 21.1 mg/kg and the “Antisp. activity in vitro on the ileum” value [2] was 0.52.
For CCCN(CCC)C(=O)C(Cc1ccc(OCCN(CC)CC)cc1)NC(=O)c1ccc(Cl)cc1 [CR 831, O-(2-diethylamino-ethyl)-N-(p-chloro-benzoyl)-L-tyrosil-din-propylamide], the LD50 [3] was 35 mg/kg, the ED50 [1] was 24.4 mg/kg and the “Antisp. activity in vitro on the ileum” value [2] was 1.30.
In the case of CCCN(CCC)CCOc1ccc(CC(NC(=O)c2ccccc2)C(=O)N(CCC)CCC)cc1 (racemic) [CR 823, O-(2-di-n-propylamino-ethyl)-N-benzoyl-DL-tyrosil-di-n-propylamide], the LD50 [3] is reported as 23 mg/kg, the ED50 [1] is reported as 16.2 mg/kg and the “Antisp. activity in vitro on the ileum” value [2] is reported as 1.48.
For CCCN(CCC)C(=O)C(Cc1ccc(OCCN(C)C)cc1)NC(=O)c1ccc([N+](=O)[O-])cc1 (racemic) [CR 620, O-(2-dimethylamino-ethyl)-N-(p-nitro-benzoyl)DL-tyrosil-di-n-propylamide], the LD50 [3] was 117 mg/kg, the “Antisp. activity in transit test: ED50” value [1] was “inactive” and the “Antisp. activity in vitro on the ileum” value [2] was 0.36.
In the case of CCCN(CCC)C(=O)C(Cc1ccc(OCCN(CC)CC)cc1)NC(=O)c1ccc(C)c(C)c1 (racemic) [CR 632, O-(2-diethylamino-ethyl)-N-(3,4-di-methyl-benzoyl)-DL-tyrosil-di-n-propylamide], the LD50 [3] is reported as 38.1 mg/kg, the ED50 [1] is reported as 26 mg/kg and the “Antisp. activity in vitro on the ileum” value [2] is reported as 0.40.
In the case of CCCCNC(=O)C(Cc1ccc(OCCCN2CCN(C)CC2)cc1)NC(=O)c1ccc(Cl)cc1 (racemic) [CR 705, O-[3-(N"-methyl-piperazine)-N'-propyl]-N-(p-chloro-benzoyl)-DL-tyrosil-n-butylamide], the LD50 [3] is reported as 80 mg/kg, the ED50 [1] is reported as 31 mg/kg and the “Antisp. activity in vitro on the ileum” value [2] is reported as 1.57.
With CCCCCCNC(=O)C(Cc1ccc(OCCN2CCCC2)cc1)NC(=O)c1ccc(C)cc1 (racemic) [CR 826, 0-(2-pyrrolidil-N'-ethyl)-N-toluoyl-DL-tyrosil-n-hexylamide] the “DL50 in a rat” value (rat) was 41 mg/kg, the “Antisp. activity in transit test: ED50” value [1] was 17.0 mg/kg and the “Antisp. activity in vitro on the ileum” value [2] was 1.2.
With CCN(CC)CCOc1ccc(CC(NC(=O)c2ccccc2)C(N)=O)cc1 (racemic) [CR 740, O-(2-dietylamino-ethyl)-N-benzoyl-DL-tyrosil-amide] the LD50 [3] was 102 mg/kg, the “Antisp. activity in transit test: ED50” value [1] was “inactive” and the “Antisp. activity in vitro on the ileum” value [2] was 0.36.
For CCN(CC)CCOc1ccc(CC(NC(=O)c2ccccc2)C(=O)N(C)C)cc1 (racemic) [CR 738, O-(2-diethylamino-ethyl)-N-benzoyl-DL-tyrosil-di-methylamide], the LD50 [3] was 85.3 mg/kg, the ED50 [1] was 50.6 mg/kg and the “Antisp. activity in vitro on the ileum” value [2] was 0.14.
For CCCN(CCC)C(=O)C(Cc1ccc(OCCCN2CCN(CCO)CC2)cc1)NC(=O)c1ccccc1 (racemic) [CR 609, O-[3-(N"-hydroxyethyl-piperazine)-N'-propyl]-N-benzoyl-DL-tyrosil-di-n-propylamide], the LD50 [3] was 139 mg/kg, the ED50 [1] was 50.5 mg/kg and the “Antisp. activity in vitro on the ileum” value [2] was 0.68.
For CCCN(CCC)C(=O)C(Cc1ccc(OCCN(C(C)C)C(C)C)cc1)NC(=O)c1ccc(Cl)cc1 (racemic) [CR 727, O-(2'-di-isopropylamino-ethyl)-N-(p-chloro-benzoyl)-DL-tyrosil-di-n-propylamide], the LD50 [3] was 26.3 mg/kg, the ED50 [1] was 24.9 mg/kg and the “Antisp. activity in vitro on the ileum” value [2] was 1.52.
With CCCN(CCC)C(=O)C(Cc1ccc(OCCN(C)C)cc1)NC(=O)OCc1ccc([N+](=O)[O-])cc1 (centres unmarked) [CR 613] the LD50 [3] was 100 mg/kg, the ED50 [1] was 58.7 mg/kg and the “Antisp. activity in vitro on the ileum” value [2] was 0.68.
For “O-(2-diisopropylamino-ethyl)-N-toluoyl-DL-tyrosil-n-butylamide [CR 709]”, the “DL50 in a rat” value (rat) was 40 mg/kg and the “Antisp. activity in transit test: ED50” value [1] was 36.1 mg/kg.
For CCCN(CCC)C(=O)C(Cc1ccc(OCCN(C(C)C)C(C)C)cc1)NC(=O)c1ccccc1 (racemic) [CR 624, O-(2-di-isopropylamino-ethyl)-N-benzoyl-DL-tyrosil-di-n-propylamide], the LD50 [3] was 24.4 mg/kg, the “Antisp. activity in transit test: ED50” value [1] was “inactive” and the “Antisp. activity in vitro on the ileum” value [2] was 1.12.
With CCCCNC(=O)C(Cc1ccc(OCCN(CC)CC)cc1)NC(=O)c1ccc(Cl)cc1 (racemic) [CR 729, O-(2-diethylamino-ethyl)-N-(p-chloro-benzoyl)-DL-tyrosil-n-butylamide] the LD50 [3] was 38.6 mg/kg, the ED50 [1] was 23 mg/kg and the “Antisp. activity in vitro on the ileum” value [2] was 2.45.
For CCCN(CCC)C(=O)C(Cc1ccc(OCCN(CC)CC)cc1)NC(=O)OCc1ccccc1 (racemic) [CR 832, O-(2-diethylamino-ethyl)-N-carbobenzoxy-DL-tyrosil-di-n-propylamide], the LD50 [3] was 32.4 mg/kg, the ED50 [1] was 16.3 mg/kg and the “Antisp. activity in vitro on the ileum” value [2] was 1.40.
In the case of CCN(CC)CCOc1ccc(CC(NC(=O)c2ccccc2)C(=O)N(CC)CC)cc1 (racemic) [CR 734, O-(2-diethylamino-ethyl)-N-benzoyl-DL-tyrosil-di-ethylamide], the LD50 [3] is reported as 62.2 mg/kg, the ED50 [1] is reported as 33.4 mg/kg and the “Antisp. activity in vitro on the ileum” value [2] is reported as 0.52.
For CCCNC(=O)C(Cc1ccc(OCCN2CCCC2)cc1)NC(=O)c1ccccc1 (racemic) [CR 821, O-(2-pyrrolidil-N'-ethyl)-N-benzoyl-DL-tyrosil-n-propylamide], the LD50 [3] was 53 mg/kg, the ED50 [1] was 15.6 mg/kg and the “Antisp. activity in vitro on the ileum” value [2] was 0.13.
In the case of CCCCNC(=O)C(Cc1ccc(OCCCN2CCN(C)CC2)cc1)NC(=O)c1ccccc1 (racemic) [CR 702, O-[3-(N"-methyl-piperazine)-N'-propyl]-N-benzoyl-DL-tyrosil-n-butylamide], the LD50 [3] is reported as 81.4 mg/kg, the ED50 [1] is reported as 62.5 mg/kg and the “Antisp. activity in vitro on the ileum” value [2] is reported as 0.11.
